Data reported in PMC3084843 (PLoS ONE, 2011).

Target: T1, human Kir2.1 (Homo sapiens, UniProt P63252)
T1 construct: gene KCNJ2; tags kept
T1 sequence (P63252 1-427): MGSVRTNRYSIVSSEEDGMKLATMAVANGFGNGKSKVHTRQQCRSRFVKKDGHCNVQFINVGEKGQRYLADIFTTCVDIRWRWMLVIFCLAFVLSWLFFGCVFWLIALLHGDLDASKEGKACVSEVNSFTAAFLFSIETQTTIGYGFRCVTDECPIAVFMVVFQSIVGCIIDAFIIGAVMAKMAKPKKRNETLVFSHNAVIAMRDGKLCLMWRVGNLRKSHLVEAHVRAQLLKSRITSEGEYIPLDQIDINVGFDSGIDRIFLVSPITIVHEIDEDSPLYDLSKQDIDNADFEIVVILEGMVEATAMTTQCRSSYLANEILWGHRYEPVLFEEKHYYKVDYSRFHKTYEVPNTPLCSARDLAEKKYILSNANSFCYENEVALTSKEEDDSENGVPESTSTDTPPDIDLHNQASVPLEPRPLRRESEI
Assay: […]+ uptake into proteoliposomes
Assay type: biochemical

% reduction of channel activity: ~ 45%
SMILES: CC(C)CCC[C@@H](C)[C@H]1CC[C@H]2[C@@H]3CC=C4C[C@@H](O)CC[C@]4(C)[C@H]3CC[C@]12C [cholesterol]
